Legend:
Assay type in all cases: cell-based
human newborn cord blood = test: Whole blood cytokine assay (TNF, IL-1β ELISA), newborn cord blood; settings: 6 h
Method: (§1) Assessment of TLRA activity in whole blood was completed as previously described. […] Vehicle (DMSO) was added separately as a control. Suspensions containing 200 μl/well were gently mixed by pipetting and incubating for 6 h at 37°C in a humidified incubator at 5% CO2. After culture, plates were centrifuged at 500 x g and 100–150 μl of supernatant was carefully removed by pipetting without disturbing the cell pellet. Supernatants derived from human leukocyte stimulations were assayed by enzyme-linked immunoabsorbent assay (ELISA) for TNF (BD Biosciences, San Jose, CA, USA) and IL-1β (eBiosciences, San Diego, CA). Experiments were performed in triplicates.
(§2) Compound concentrations are shown in μM. Data are shown as mean ± SEM of n = 6–8.
(§3) Compound concentrations are shown in μM/ml. Cytokine production is shown as pg/ml. (PDF) Click here for additional data file.

[1] = test system: human adult peripheral blood; test: Whole blood cytokine assay (TNF, IL-1β ELISA), adult peripheral blood; settings: 6 h
Method: as §1, §2, §3

human newborn MoDCs = test: TNF production by newborn monocyte-derived dendritic cells; settings: human neonatal MoDCs, tested 0.1–10 μM, 24 h
[2] = test system: human newborn and adult leukocytes; test: Whole blood and MoDC assays, overall potency as summarised in the discussion; settings: Leukocyte, Tested in both whole blood and MoDC assays
Method: as §1

Row | SMILES | IL-1β production (human newborn cord blood; 0.01 µM) [pg/mL] | TNF-α production (human newborn cord blood; 0.01 µM) [pg/mL] | IL-1β production (human newborn cord blood; 0.03 µM) [pg/mL] | TNF-α production (human newborn cord blood; 0.03 µM) [pg/mL] | IL-1β production (human newborn cord blood; 0.1 µM) [pg/mL] | TNF-α production (human newborn cord blood; 0.1 µM) [pg/mL] | IL-1β production (human newborn cord blood; 0.3 µM) [pg/mL] | TNF-α production (human newborn cord blood; 0.3 µM) [pg/mL] | IL-1β production (human newborn cord blood; 1 µM) [pg/mL] | TNF-α production (human newborn cord blood; 1 µM) [pg/mL] | IL-1β production (human newborn cord blood; 10 µM) [pg/mL] | TNF-α production (human newborn cord blood; 10 µM) [pg/mL] | IL-1β production ([1]; 0.01 µM) [pg/mL] | TNF-α production ([1]; 0.01 µM) [pg/mL] | IL-1β production ([1]; 0.03 µM) [pg/mL] | TNF-α production ([1]; 0.03 µM) [pg/mL] | IL-1β production ([1]; 0.1 µM) [pg/mL] | TNF-α production ([1]; 0.1 µM) [pg/mL] | IL-1β production ([1]; 0.3 µM) [pg/mL] | TNF-α production ([1]; 0.3 µM) [pg/mL] | other results
1 | CCCCc1nc2c(N)nc3ccccc3c2n1Cc1cccc(CN)c1 [Meta-amine] | 15.63 | 79.15 | 15.63 | 78.72 | 15.63 | 94.65 | 15.63 | 93.72 | 271.87 | 1779.40 | 6199.29 | 32214.43 | 15.63 | 23.44 | 15.63 | 23.44 | 15.63 | 20.83 | 15.63 | 214.57 | IL-1β production ([1]; 1 µM): 232.86 pg/mL; TNF-α production ([1]; 1 µM): 3739.68 pg/mL; IL-1β production ([1]; 10 µM): 2699.66 pg/mL; TNF-α production ([1]; 10 µM): 19087.54 pg/mL
2 | CCCCc1nc2c(N)nc3ccccc3c2n1Cc1ccc(CN)cc1 [Para-amine] | 15.63 | 64.05 | 15.63 | 120.31 | 15.63 | 70.49 | 15.63 | 381.52 | 387.41 | 1780.16 | 2820.52 | 16542.73 | 15.63 | 23.44 | 15.63 | 121.74 | 15.63 | 856.34 | 15.63 | 3653.12 | IL-1β production ([1]; 1 µM): 419.70 pg/mL; TNF-α production ([1]; 1 µM): 6740.50 pg/mL; IL-1β production ([1]; 10 µM): 2008.09 pg/mL; TNF-α production ([1]; 10 µM): 18165.00 pg/mL
3 | CCOCc1nc2c(N)nc3ccccc3c2n1CC(C)(C)O [R848, resiquimod, reference compound] | 15.63 | 95.80 | 15.63 | 84.29 | 46.36 | 68.30 | 15.63 | 210.98 | 415.65 | 654.85 | 322.08 | 1574.58 | 15.63 | 23.44 | 15.63 | 23.44 | 14.94 | 284.13 | 15.63 | 549.52 | IL-1β production ([1]; 1 µM): 191.49 pg/mL; TNF-α production ([1]; 1 µM): 3939.41 pg/mL; IL-1β production ([1]; 10 µM): 1922.12 pg/mL; TNF-α production ([1]; 10 µM): 19454.73 pg/mL; Concentration inducing TNF (human newborn MoDCs): 1 to 10 µM; EC50 [2]: 1 µM

Source: paper PMC4537157 (PLoS ONE, 2015)
